Test results taken from PubChem BioAssay AID1996.
Values after ≈ are worked out from the molar mass of the structure shown.

Settings: buffer; pH 7.4; 200.0 µM

| SMILES | solubility kinetic [µg/mL] |
| --- | --- |
| c1ccc2oc(NC3=NCN(C4CCCCC4)CN3)nc2c1 | 1.3 (≈ 4.34 µM) |
| O=C(c1ccccc1)C1CCN(C(=O)c2c(F)cccc2F)CC1 | > 49.4 |
| CC1(C)CCN2CCC(C)(C)c3c(O)ccc1c32.CS(=O)(=O)O | 19.6 |
| Cc1nn(CC(=O)OCC(=O)NCCc2ccc(F)cc2)c(C)c1[N+](=O)[O-] | > 56.8 |
| CCOCCCNC(=O)C1CCN(S(=O)(=O)N2CCCC2)CC1 | > 52.1 |
| Cc1cc(C)nc(Oc2ccc(Br)cc2)n1 | 35.5 (≈ 127 µM) |
| Cc1cccc(NC(=O)CCCN2C(=O)C3CC=CCC3C2=O)c1 (stereo not given) | > 49 |
| COc1ccc(N2C(S)=C(C#N)C(=O)NC23CCCCC3)cc1 | 19.3 (≈ 58.6 µM) |
| C=CC1CN2CCC1CC2C(OC(C)=O)c1ccnc2ccc(OC)cc12 (stereo not given) | > 55 |
| COC(=O)CCC(=O)Nc1cc(Cl)cc(Cl)c1 | 32.3 (≈ 117 µM) |
| CN1C(=O)c2cccc3c(S(=O)(=O)N(C)C)ccc1c23 | 14 (≈ 48.2 µM) |
| CC1CCCN(C2(O)C(=O)Nc3c(C(F)(F)F)cccc32)C1 (stereo not given) | > 47.1 |
| Cc1ccc(C)c(NC(=O)C2CC(=O)N(C3CCCCC3)C2)c1 (stereo not given) | 41.5 (≈ 132 µM) |
| CC(C)c1ccc(NC(=O)CN2C(=O)NC3(CCCCCCC3)C2=O)cc1 | 16.4 (≈ 44.1 µM) |
| CSc1sc(C(=O)NCC2CC2)cc1S(=O)(=O)C(C)C | 49.3 (≈ 148 µM) |
| Cc1ccc(S(=O)(=O)N2CCCN(C)CC2)cc1.Cl | > 45.7 |
| Cc1ccc(NC(=O)c2cc3ccccc3cc2O)cc1 | < 0.6 |
| CCOCCCNC(=O)/C(C#N)=C/c1ccc(C)o1 | 35.4 (≈ 135 µM) |
| COC(=O)c1ccc(COc2ccc(C#N)cc2)o1 | 7 (≈ 27.2 µM) |

| SMILES | solubility kinetic [µg/mL] |
| --- | --- |
| CCOc1cc(N2CCOCC2)c(OCC)cc1NC(=O)COC(=O)c1c(CC)noc1C | 7 (≈ 15.2 µM) |
| CC(C)(C)CN1CCN(CC#Cc2ccccc2)CC1CCO (stereo not given) | > 47.2 |
| CC(C)(C)C(=O)O/N=C(\N)c1ccc(Br)cc1 | 30.3 (≈ 101 µM) |
| O=C(CC1CC2CCC1C2)NC1CCCCCCC1 (stereo not given) | 4.5 (≈ 17.1 µM) |
| CC(=O)c1ccc(N2CCN(C(=O)c3cc4c(s3)CCCC4)CC2)cc1 | 10.7 (≈ 29 µM) |
| Cc1nc(C(=O)N2CCCC(C(=O)c3ccc(Cl)cc3)C2)cs1 (stereo not given) | > 52.3 |
| Cc1cc(C)c(S(=O)(=O)NCc2csc(C)n2)c(C)c1 | > 46.6 |
| Cc1nc2ccc(Nc3ccncc3)cc2s1 | 34.2 (≈ 142 µM) |
| CC1CCCCC1NC1CCN(C)CC1 (stereo not given) | > 31.6 |
| Cc1cnc([N+](=O)[O-])n1CCOC(=O)NC(=O)c1c(F)cccc1F | > 53.1 |
| CN(C(=O)c1ccc2c(c1)OCO2)C1CCS(=O)(=O)C1 (stereo not given) | > 44.6 |
| CCCCS(=O)(=O)N1CCC(C(=O)NCC2CCCO2)CC1 (stereo not given) | 46 (≈ 138 µM) |
| CN(C)S(=O)(=O)c1ccc(NC(=O)Cn2ccsc2=N)cc1 | 48 (≈ 141 µM) |
| Cc1ccc(C(=O)CCC(=O)NC2CCCC(C)C2C)cc1 (stereo not given) | 17.4 (≈ 57.7 µM) |
| CCOc1ccc(Br)cc1S(=O)(=O)Nc1ccc(S(=O)(=O)Nc2cc(C)on2)cc1 | 9.3 (≈ 18 µM) |
| CCC(C)c1c(O)nc(SCC(=O)N2CCCCC2)[nH]c1=O (stereo not given) | > 48.8 |
| CCOc1ccc2ccccc2c1C1NC(=O)N(C)C(C)=C1C(=O)OCCOC (stereo not given) | 1.9 (≈ 4.77 µM) |
| O=C1CSC(=Nc2cccc(C(=O)O)c2)N1 | > 35.4 |

More lines, now with the values ahead:

| solubility kinetic [µg/mL] | SMILES |
| --- | --- |
| 45.5 (≈ 140 µM) | CC(=O)c1ccc(NC(=O)C(C)O/N=C(\N)c2ccccc2)cc1 (stereo not given) |
| > 38.4 | O=[N+]([O-])c1ccc(Nc2ccccc2)c2nonc12 |
| > 47 | CNc1nc2c(c(=O)[nH]c(=O)n2C)n1CCCc1ccccc1 |
| 0.5 (≈ 1.68 µM) | COc1ccccc1Cn1c(=S)[nH]c2ccccc2c1=O |
| 27.9 (≈ 99.7 µM) | CCCOc1ccc(/C=C2/C(=O)ON=C2C)cc1Cl |
| > 53.7 | Cc1ccc(Cl)cc1NC(=O)CCCN1C(=O)c2cccnc2C1=O |
| > 48.1 | C[C@H](NC(=O)c1ccccc1Cl)C(=O)Nc1ccccc1F |
| > 46.3 | CN1CCN(/N=C/c2ccc(N(C)c3ccccc3)cc2)CC1 |
| > 40.5 | O=C(NCCCn1ccnc1)c1ccc(Cl)s1 |
| 37.3 (≈ 148 µM) | NC1=C(Br)C(=O)c2ccccc2C1=O |
| 6.1 (≈ 19.3 µM) | O=C(c1ccc(Cl)cc1[N+](=O)[O-])N1CCc2ccccc2C1 |
| > 48.4 | NS(=O)(=O)c1ccc(CNC(=O)Cc2ccccc2F)cc1 |
| 48.1 (≈ 141 µM) | CSc1ncccc1C(=O)NC1CCN(Cc2ccccc2)CC1 |
| 10.8 (≈ 56.5 µM) | Cc1c(/C=N/O)sc2ccccc12 |
| 12.6 (≈ 38.6 µM) | Cc1ccc(NC(=O)CCCn2c(=O)oc3ccccc32)c(O)c1 |
| 9.2 (≈ 31.9 µM) | FC(F)(F)c1nc2cc3nc4ccccc4[nH]c3cc2n1 |
| 34.1 (≈ 133 µM) | O=C(CCc1ccccc1)NCc1ccc(F)cc1 |
| 2.3 (≈ 9.51 µM) | Clc1ncc(CSc2ccccc2)s1 |
| > 41.4 | Cc1ccc(NC(=O)NCc2ccccn2)cc1Cl |
| 40.4 (≈ 120 µM) | CC(C(=O)OCC(=O)c1ccccc1)N1C(=O)c2ccccc2C1=O (stereo not given) |
| > 49.8 | CNCc1c(OCc2ccc(F)cc2)ccc2ccccc12.Cl |
| > 59.3 | O=C(CNC(=O)c1ccc(Br)o1)NCC1COc2ccccc2O1 (stereo not given) |
| 3.4 (≈ 10.5 µM) | COc1ccc(C(=O)c2sc(Nc3ccccc3)nc2C)cc1 |
